Measurements as given in patent US20160039796A1, “BARETTIN AND DERIVATIVES THEREOF FOR MEDICAL USE, IN PARTICULAR FOR THE TREATMENT OF DISEASES RELATED TO OXIDATIVE STRESS OR INFLAMMATION, AND FOR PRESERVING OR WASHING ORGANS” (ABC Bioscience AS, priority 2013, published 2016).

Legend:
[1] = FRAP (ferric reducing antioxidant power) assay; type: biochemical; conditions: for FRAP value: 30 μg/ml; for FRAP dose-response: FIG. 2
Description: The inventors used the biochemical assay FRAP (ferric reducing antioxidant power) to obtain an indication of the antioxidant potential of MBC-005 (isolated brominated) and MBC-007 (synthetic de-brominated).
Reagents were prepared according to benzie, I.F.F. et al. Analytical Biochemistry 1996, 239, 70-76 and carried out in a DTX 880 Multimode Detector (Beckman Coulter, Calif., USA) at 595 nm. Trolox (Sigma, 238813) was used to prepare the standard curve (0-250 μM; working concentration). The FRAP reagent (TPTZ (2,4,6-Tris(2-pyridyl)-s-triazine): Fluka, 93285; Fe: Merck 103943) was prepared daily. The assay was carried out in clear 96-well plates, with 20 μl sample and 150 μl FRAP-reagent added to each well in duplicates. Water was used as a blank. Samples were incubated at 37° C. for 30 min before reading the plate. The blank was subtracted from each sample and a standard curve was created from the average absorbance of the duplicated Trolox samples. The equation generated from the standard curve was used to calculate the trolox equivalents (TE) from each sample. Results were expressed as μM TE.

[2] = ORAC (oxygen radical absorbance capacity) assay; type: biochemical; conditions: for ORAC dose-response: FIG. 3
Description: The inventors used the biochemical assay ORAC (oxygen radical absorbance capacity) to obtain an indication of the antioxidant potential of MBC-005 (isolated brominated) and MBC-007 (synthetic de-brominated).
The method has been modified from Huang, D. et al., Journal of Agricultural and Food Chemistry 2002, 50, 4437-4444. The assay was carried out in black 96-well plates (Nunc 7350004) and using a Victor3 Plate Reader (Perkin Elmer, Mass., USA) at 37° C. (exitation 486 nm, emission 520 nm). All reagents were dissolved in 75 mM phosphate buffer (PB) (pH 7,4). Different concentrations of the MBC-005 and MBC-007 preparations were added in duplicates followed by addition of 125 μl fluorescein (Fluka, 46960) (52 nM final concentration). After a 15 minute incubation at 37° C., 60 μl AAPH (2,2′-Azobis(2-methylpropionamidine) dihydrochloride; Sigma-Aldrich, 440914) was quickly added to each sample (44 mM final concentration). Fluorescence was recorded 25 times at 37° C. with a 70 sec delay between repeats. Trolox (0-25 μM working concentration) was included in each run to make a standard curve. PB was used as a blank and for the 0 μM Trolox sample. Area under the curve (AUC) was calculated by subtracting the AUCBlank values. A standard curve was created using the Trolox values and Trolox equivalents of the samples were calculated from the resulting equation. Results were expressed as μM TE.

[3] = system: HepG2 cells; experiment: cellular lipid peroxidation antioxidant activity (CLPAA) assay; type: cell-based; conditions: for activity in CLPAA assay (lipid peroxidation in HepG2 cells): FIG. 4, normalized to positive control CumOOH
Description: (§1) HepG2 cells were grown in MEM Earle's medium (F0325) supplemented with gentamycin (10 μg/ml, A2712), non-essential amino acids (1%, K0293), sodium pyruvate (1 mM, L0473), L-alanyl-L-glutamine (2 mM, K0302) and fetal bovine serum (10%, S0115) and incubated at 37° C. with 5% CO2. Media and supplements were from Biochrom (Berlin, Germany).
The inventors used the cellular lipid peroxidation antioxidant activity (CLPAA) assay. This assays measures the intracellular ROS (reactive oxygen species) and membrane antioxidant activity, respectively. The brominated barettin molecule gave a 55% reduction in oxidation compared to the control in the CLPAA assay.
Approximately 80.000 HepG2 cells per well were seeded in black 96 well plates with clear bottom (#3603, Corning, N.Y., USA) and incubated overnight. The cells were labelled with C11-BODIPY (#D3861, Invitrogen, Eugene, Oreg.) for 30 min and incubated for 1 h with various concentrations of the test compounds. Cumene hydroperoxide (cumOOH, #247502, Sigma-Aldrich, St. Louis, Mo.) was added to initiate lipid peroxidation and the plate was immediately placed in a Victor3 Plate Reader (Perkin Elmer, Mass., USA). Both red (590/7 nm (exitation), 632/45 nm (emission)) and green (485/14 nm, 520/10 nm) fluorescence was recorded during ˜1 h. Cells were washed with PBS between additions of new reagents. Total reaction volume was 100 μl. All incubations were carried out at 37° C. with 5% CO2. Percent inhibition was calculated relative to the positive control (cumOOH without test compound).

[4] = system: IL-6 release from THP-1 cells; experiment: LPS-induced release of IL-6 from THP-1 cells (ELISA); type: cell-based, human
Description: Monocytes are well-recognised to respond to inflammatory stimuli by releasing a range of cytokines; IL-6 is a highly expressed pro-inflammatory cytokine in activated monocytes. The principle of this assay was to compare the effect of pre-incubating human cells from a monocyte-derived cell line (THP-1) with a known anti-inflammatory drug (dexamethasone; Dex), or a range of concentrations of barettin, on IL-6 generation in response to the inflammatory stimulus, lipopolysaccharide (LPS).
THP-1 cells (Health Protection Agency, Porton Down, UK) were maintained at 37° C. with 5% CO2 in RPMI 1640 containing 10% foetal bovine serum, 2 mM L-glutamine with 100 IU/ml penicillin and 100 μg/ml streptomycin (PAA laboratories Ltd, Yeovil, UK). The cells were grown in suspension and then plated out in 24-well plates at 2×10^5 cells per well.
Treatments: • a. vehicle control (RPMI 1640+0.5% DMSO) • b. 10 μM Dex for 24 h • c. 10 μg/ml LPS for 24 h • d. Pre-treated with 10 μM Dex for 30 min followed by 10 μg/ml lipopolysaccharide LPS for 24 h • e. Pre-treated with barettin at 1, 3, 10, 30 and 100 μg/ml for 30 min followed by 10 μg/ml LPS for 24 h
The concentration of Dex and barettin remained consistent throughout the incubation period; the final DMSO concentration was 0.5%. Cells were incubated at 37° C. and 5% CO2 for 24 hours.
Following incubations, cells and supernatants were harvested into 1.5 ml Eppendorf® tubes and supernatants were cleared of cells and debris by centrifugation at 300 g for 3 min at room temperature. Supernatants were transferred to clean 1.5 ml Eppendorf® tubes and stored at −80° C.
IL-6 expression was measured by ELISA (eBioscience, human IL-6 Platinum ELISA) according to the manufacturer's instructions. Data were collected using a VarioSkan Flash plate reader and Skanit software v2.4.3 (Thermo Fisher Scientific, Basingstoke, UK).

[5] = system: HepG2 cells; experiment: cytotoxicity assay, HepG2 cells (CellTiter 96 AQueous One Solution); type: cell-based; conditions: 2 h and 24 h exposure, concentrations tested (FIG. 6)
Description: (§2) Cytotoxicity was tested on HepG2 and MRC-5 cells (normal lung fibroblasts) for 2 h (HepG2) and 24 h (HepG2 and MRC-5) using the CellTiter 96 AQueous One Solution Assay (Promega). MBC-005 and MBC-007 were not toxic to the HepG2 or the MRC5 cells in the concentrations tested (FIG. 6 and FIG. 7). In the CLPAA assays the cells were exposed to the test compounds for 1 h before washed. Thus a 2 h exposure would detect whether the MBC-compounds are likely to cause cell death and false results in the CLPAA assays. MRC5 and HepG2 cells were also exposed to the barettin compounds for 24 h. This would reveal more long-term damage or whether any toxicity was caused by something other than membrane lysis. […] This was above the concentrations used in the CLPAA assay.
as §1, with “HepG2 and MRC-5” for “HepG2”
(§3) Cytotoxicity was studied in HepG2 and MRC-5 cells (normal human lung fibroblasts) for 2 h (HepG2) and 24 h (HepG2 and MRC-5). […] Absorbance was measured at 485 nm in a DTX 880 Multimode Detector. Results were calculated as % survival compared to a positive control.

[6] = system: MRC-5 cells (normal human lung fibroblasts); experiment: cytotoxicity assay, MRC-5 cells (CellTiter 96 AQueous One Solution); type: cell-based; conditions: 24 h exposure, concentrations tested (FIG. 7)
Description: as §2
as §1, with “HepG2 and MRC-5” for “HepG2”
as §3

[7] = cytotoxicity of isolated barettin over 72 h (data not shown); type: cell-based
Description: MBC-005 and MBC-007 were not toxic to the HepG2 or the MRC5 cells in the concentrations tested (FIG. 6 and FIG. 7). […] This would reveal more long-term damage or whether any toxicity was caused by something other than membrane lysis. […] This was above the concentrations used in the CLPAA assay.

[8] = system: tumor necrosis factor-alpha (TNF-α) in LPS induced monocytes (THP-1 cells); experiment: inhibition of TNF-α secretion in LPS induced monocytes (ELISA); type: cell-based, human; conditions: 75 and 100 μg/ml, LPS induced THP-1 cells
Description: (§4) Tumor necrosis factor-alpha (TNF-α) and Interleukin-1 beta (IL-1β) are both cytokines (small cell-signalling protein molecules) linked to inflammatory responses. Thus, the present inventors have tested the ability of isolated barettin (designated MCB-011 in the present experiment) to inhibit the secretion of these cytokines in LPS induces monocytes (THP-1 cells).
(§5) THP-1 cells were grown in RPMI-1640 supplemented with gentamycin and FBS and incubated at 37° C. with 5% CO2. To differentiate the monocytes into macrophages, 50 ng/ml PMA was added. Approximately 10^5 cells supplemented with 50 ng/ml PMA were seeded in 96 well plates and incubated at 37° C., 5% CO2 for 48 hours. The cells were controlled using a microscope after 24 h to make sure they had started to differentiate. After 48 h the cells were washed and new RPMI (w/o PMA) added before another 24 h incubation.
(§6) The cells were added 90 μl fresh medium and 10 μl test compound at various concentrations in duplex. After incubation for 1 h, 1 ng/ml LPS was added to all samples except negative controls. Incubation for 6 h at 37° C. followed. The reactions were stopped by freezing the plates at −80° C. immediately after incubation. One day prior to ELISA testing MaxiSorp 96F-well plates were coated with 2 μg/ml capture antibody (Ab) and placed in the refrigerator overnight. […] Results were read at DTX880 at 405 nm.

[9] = system: Interleukin-1 beta (IL-1β) in LPS induced monocytes (THP-1 cells); experiment: inhibition of IL-1β secretion in LPS induced monocytes (ELISA); type: cell-based, human; conditions: 75 and 100 μg/ml, LPS induced THP-1 cells
Description: as §4, §5, §6

## N=C(N)NCCCC1NC(=O)/C(=C/c2c[nH]c3cc(Br)ccc23)NC1=O (stereo not drawn) [MBC-005, cyclo-[(6-bromo-8-en-tryptophan)-arginine]]
[1]
  FRAP value: 77 μM TE
  FRAP dose-response: dose-response activity was observed
[2]; 30 μg/ml (71.6 μM)
  ORAC value (Trolox equivalents): 5.5 μM TE
[2]
  ORAC dose-response: dose-response activity was observed
[3]
  activity in CLPAA assay (lipid peroxidation in HepG2 cells): acts in a dose-dependent manner to reduce lipid peroxidation
[3]; HepG2 cells, cumOOH-induced lipid peroxidation
  reduction in oxidation compared to the control: 55%
[4]; 1 μg/ml (~2.4 μN)
  effect on LPS-induced generation of IL-6, significance: significant
[4]; 30 μg/ml and below
  anti-inflammatory effect versus cytotoxicity: genuine anti-inflammatory effect
[4]; 1-100 μg/ml, 30 min pre-treatment, 10 μg/ml LPS 24 h
  effect on LPS-induced generation of IL-6: clear concentration-dependent effect
[4]; pilot data, THP-1 cells, compound alone
  IL-6 expression with compound alone (no LPS): did not result in the up-regulation of IL-6 expression
[5]
  cytotoxicity to HepG2 cells: not toxic
[6]
  cytotoxicity to MRC5 cells: not toxic
[7]
  concentration at which cytotoxicity appears: ≥ 100 µg/mL

## N=C(N)NCCC[C@@H]1NC(=O)/C(=C/c2c[nH]c3ccccc23)NC1=O [MBC-007]
[1]
  FRAP dose-response: dose-response activity was observed
[2]
  ORAC dose-response: dose-response activity was observed
[3]; listed as de-brominated synthetic analogue
  activity in CLPAA assay (lipid peroxidation in HepG2 cells): did not show any significant activity
[5]
  cytotoxicity to HepG2 cells: not toxic
[6]
  cytotoxicity to MRC5 cells: not toxic

## N=C(N)NCCC[C@@H]1NC(=O)/C(=C/c2c[nH]c3cc(Br)ccc23)NC1=O [MBC-011, Barettin]
[8]
  inhibition of TNF-α: significant inhibition
[9]
  inhibition of IL-1β: significant inhibition

## O=c1cc(-c2ccc(O)c(O)c2)oc2cc(O)cc(O)c12 [luteolin, reference compound]
[1]
  FRAP value: 151 μM TE
